Measurements as given in US20240042066A1, “FIBROBLAST ACTIVATION PROTEIN INHIBITOR” (BOOMRAY PHARMACEUTICALS CO., LTD., priority 2020, published 2024).

How the values were obtained:
[1] = Determination of the half-life in vivo by imaging healthy mice with 68Ga-TEFAPI-06; details: PET imaging, SUV at the heart, 68Ga label, tail vein injection; for half-life: mouse, blood, intravenous, 37 MBq
Protocol: A germanium-gallium generator was eluted with 5 mL of 0.6 M high-purity hydrochloric acid to obtain Ga-68 hydrochloric acid solution. 1 mL of the eluted Ga-68 solution was taken, 100 μL of 3M sodium hydroxide and 130 μL of 3M sodium acetate were added to adjust the acidity, the final pH was 4.0, 50 μg of TEFAPI-06 precursor was added, and the reaction mixture was heated to 90° C., and maintained at the temperature for 10 minutes. The reaction solution was passed through a C18 column to remove free ions, and then the C18 column was eluted with ethanol solution. Labeled ^68Ga-TEFAPI-06 was obtained.
37 MBq labeled product was taken, 200 μL of normal saline was added for dilution, the drug was drawn with an insulin syringe for later use, and ethanol content in the drug was not higher than 5%. Healthy mice were anesthetized in advance and then placed on a PET/CT collection bed and an indwelling needle was placed at the tail vein. The syringe was attached to the indwelling needle, and collection of PET data was started at the zero moment of needle pushing. Collection time points were 0-60 min, 2 h, 3 h, 4 h, and 5 h respectively. After the collection, the data was reconstructed with professional software, and reconstruction conditions were to reconstruct the data at intervals of every minute for the first 5 minutes, reconstruct the data every 5 minutes in 5-60 minutes, and reconstruct the data at each of the other time points. The collected data was processed by PET reconstruction software to obtain continuous image. In PET processing software, a fixed region was depicted at the heart of the mouse, and SUV-Mean and SUV-Max values at the heart were obtained. The obtained SUV was simulated via data processing software.

[2] = tested on: FAP; assay: Competitive inhibition experiment of TEFAPI-06 in mice with PDX pancreatic cancer (68Ga-FAPI-04 PET); format: in vivo
Protocol: In order to verify the specificity of TEFAPI-06 against a FAP target, the inventors performed PET imaging on the same batch of mice before and after inhibition in the competitive inhibition experiment. According to the Y-86 long-duration PET imaging, the uptake of the tumor reached a peak between 18 hours and 24 hours after drug injection. Therefore, ^68Ga-FAPI-04 imaging was first performed on tumor-bearing mice to determine that the mice had tumor uptake. After 48 hours of standing to ensure metabolism of ^68Ga-FAPI-04, two mice were injected with 300 μg of TEFAPI-06 molecules, and 18 hours after injection, PET molecular imaging of ^68Ga-FAPI-04 was performed on the mice injected with TEFAPI-06 molecules.

[3] = tested on: PDX mouse model of pancreatic cancer; assay: Long-duration PET imaging with 86Y-TEFAPI-06 in a PDX mouse model of pancreatic cancer; format: in vivo; details: after 18 hours
Protocol: Y-86 is a positron nuclide with half-life of 14.6 hours and can be radiolabeled with DOTA, and therefore, is very suitable for long-duration detection of the distribution of TEFAPI molecule in vivo. 1 mL of Y-86 hydrochloric acid was taken, 100 μL of 3M sodium hydroxide and 130 μL of 3M sodium acetate were added to adjust acidity, the final pH was 4.0, 50 μg of TEFAPI-06 precursor was added, and the reaction mixture was heated to 90° C., and maintained at the temperature for 10 minutes. The reaction solution was passed through a C18 column to remove free ions, and then the C18 column was eluted with ethanol solution. Labeled ^86Y-TEFAPI-06 was obtained. The labeled ^86Y-TEFAPI-06 was diluted with normal saline, and 7.4 Mbq of the resulting solution was injected to each mouse. PET scanning imaging was performed at 0.5, 2, 6, 12, 18, 24 and 36 h after injection, and PET image processing software was used for reconstruction. The obtained PET image is shown in FIG. 3, SUV values were marked at the tumor and heart of the mouse, and a curve was obtained based on the change of the SUV value with time.

[4] = tested on: PDX pancreatic cancer; assay: Treatment of PDX pancreatic cancer in mice with 177Lu-TEFAPI-06; format: in vivo; details: Lu-177 label, treatment dose 3.7 MBq
Text: There were 5 mice in each group. The treatment dose was 3.7 MBq. […] In order to evaluate the therapeutic effect, the inventors performed physical examination via FAPI-04 imaging on mice before and after the treatment, and the results are shown in FIG. 5.

half-life [1] [h] | blood half-life [1] [h] | kidney metabolism [3] | Structure (SMILES) | tumor uptake of 68Ga-FAPI-04 after injection of TEFAPI-06 (inhibition) ([2]; 300 μg TEFAPI-06, 18 hours before 68Ga-FAPI-04 PET, read 30 minutes after injection) | target site (specificity) ([2]; conclusion of competitive inhibition experiment) | tumor/normal tissue uptake ratio [3] | tumor growth (tumor growth curve) [4]
0.433 | – | – | N#C[C@@H]1CC(F)(F)CN1C(=O)CNC(=O)c1ccnc2ccc(OCCCN3CCN(C(=O)CN4CCN(CC(=O)O)CCN(CC(=O)O)CCN(CC(=O)O)CC4)CC3)cc12 [FAPI-04, reference compound] | – | – | – | –
6.67 | 6.63 | basically cleared | N#C[C@@H]1CC(F)(F)CN1C(=O)CNC(=O)c1ccnc2ccc(OCCCN3CCN(C(=O)[C@H](CCCCNC(=O)CN4CCN(CC(=O)O)CCN(CC(=O)O)CCN(CC(=O)O)CC4)NC(=O)CCCC(=O)NC(CCCCNC(=O)CCCc4ccc(I)cc4)C(=O)O)CC3)cc12 (some centres unmarked) [TEFAPI-06] | basically no additional uptake at the tumor | FAP | greater than 10 | significantly inhibited
